Laboratory results from article PMC9964281, “Identification of CBPA as a New Inhibitor of PD-1/PD-L1 Interaction” (International Journal of Molecular Sciences, 2023).

Biological target: T1, hPD-L1 (Homo sapiens, UniProt Q9NZQ7)
T1 construct: gene CD274; ectodomain (residues 18–239)
Assay: SPR (Biacore X100, CM5 chip with immobilized hPD-L1, steady-state fit)
Format: binding

T1 sequence (Q9NZQ7 18-239): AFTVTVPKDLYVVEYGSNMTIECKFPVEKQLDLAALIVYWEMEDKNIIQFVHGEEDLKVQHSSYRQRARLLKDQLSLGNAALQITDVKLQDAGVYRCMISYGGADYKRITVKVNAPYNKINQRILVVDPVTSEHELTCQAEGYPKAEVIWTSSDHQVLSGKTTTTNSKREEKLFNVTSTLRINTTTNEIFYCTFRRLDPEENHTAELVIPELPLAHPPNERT

`Clc1ccc(COc2ccc(CNCc3ccncc3)cc2)cc1` [CBPA, N-{4-[(4-chlorobenzyl)oxy]benzyl}-N-(4-pyridinylmethyl)amine] showed a Kd of 48.1 µM.
